The text below walks through data of patent US20240166587A1, “SARS-CoV-2 inhibitors - artificial compounds” (priority 2021, published 2024).

The subject of assay [1] is SARS-CoV-2. The class given is cell-based. As to conditions: Vero cells; for Experiment 2: repeat of TCID50 assay with a dose of 50 uM / Experiment 2: Fold reduction of TCID50 / Experiment 3: repeat of TCID50 assay with a dose of 50 uM / Experiment 3: Fold reduction of TCID50: substance 50 μM; for Experiment 2: Fold reduction of TCID50: experiment 2, versus DMSO ctrl; for Experiment 3: Fold reduction of TCID50: experiment 3, versus DMSO ctrl.

Assay [2] has as its system SARS-CoV-2. In kind it is cell-based. To be noted: Vero cells, different concentrations, 48 hours.
In assay [3] the test system is SARS-CoV-2. In kind it is cell-based. To be noted: for effect on virus proliferation after short term incubation: versus untreated controls.
For assay [4], the target named is T1, RBD to ACE2 receptor binding (Severe acute respiratory syndrome coronavirus 2, UniProt P0DTC2).
T1 construct: 200 ng His-tagged RBD was incubated
Nature of the assay: Molecular interaction assay to detect inhibition of RBD to ACE2 receptor binding. As to conditions: for inhibitory effect on binding to ACE2 receptor: His-tagged RBD, plate bound ACE2. How it is done: The molecular interaction assay to detect inhibition of RBD to ACE2 receptor binding was performed as described (Gattinger et al., Allergy, 76 (2021), 878-883) with following alterations: 200 ng His-tagged RBD was incubated with various doses (100, 50, 25, 12.2, and 6 mM) of substance X for three hours at RT followed by a 3-hours overlay onto plate bound ACE2 (2 μg/ml). Bound RBD was then detected with a mouse monoclonal anti-His antibody followed by an HRP-labelled anti-mouse IgG1 antibody and detected with ABTS detected. All measurements were performed in duplicates with a variation of <5%.

Assay [5] has as its system SARS-CoV-2. The class given is cell-based. To be noted: Vero E6, 48 hrs.

Where “and” joins values, the source holds several entries; their conditions need not be identical. Equal values may be shown once. Read-outs that look alike come from different tables or passages of the source.

The inhibition is the percentage by which the read-out fell short of the control. Higher therefore signals strong suppression.

As to `O=C(O)c1cc(O)c(O)c(O)c1` [Compound I, gallic acid], in the assay with SARS-CoV-2 [1], the “Experiment 1: TCID50 assay with 2 doses/substance, 10 μM” value is reported as 3.16 × 10^5 TCID50/mL; the “Experiment 2: repeat of TCID50 assay with a dose of 50 uM” value (from here on “Experiment 2: repeat of TCID50 assay”) is listed as 3.16 × 10^4 TCID50/mL; the “Experiment 2: Fold reduction of TCID50” value worked out at 9.97 fold; the “Experiment 3: repeat of TCID50 assay with a dose of 50 uM” value (shortened to “Experiment 3: repeat of TCID50 assay”) was 4.44 × 10^5 TCID50/mL. Also, in the assay with SARS-CoV-2 [1], the “Experiment 3: Fold reduction of TCID50” value came to 9.27 fold and the “Experiment 1: TCID50 assay with 2 doses/substance, 100 μM” value is reported as 3.56 × 10^5 TCID50/mL.

For the compound `Oc1cc(/C=C/c2cc(O)c(O)c(O)c2)cc(O)c1O` [Compound X, 3,3′,4,4′,5,5′-hexahydroxy-trans-stilbene], in the assay with SARS-CoV-2 [1], the “Experiment 1: TCID50 assay with 2 doses/substance, 10 μM” value is 5.88 × 10^4 TCID50/mL; the “Experiment 2: repeat of TCID50 assay” value is 3.16 × 10^3 TCID50/mL; the “Experiment 2: Fold reduction of TCID50” value is listed as 99.7 fold; the “Experiment 3: repeat of TCID50 assay” value is 1.95 × 10^3 TCID50/mL. In the assay on SARS-CoV-2 [1], the “Experiment 3: Fold reduction of TCID50” value was 2107 fold and 2107.2 fold; the “Experiment 1: TCID50 assay with 2 doses/substance, 100 μM” value is given as 4.64 × 10^2 TCID50/mL. For the same compound, the “inhibition of virus proliferation” value with SARS-CoV-2 [2] is on record as “inhibition of virus proliferation”. Also, in the assay with SARS-CoV-2 [3] (25 μM for one hour), the “ct values after short term incubation” value is listed as “significantly increased”. The “ct values after short term incubation” value with SARS-CoV-2 [3] (50 μM for one hour) is listed as “significantly increased”. For the same compound, the “effect on virus proliferation after short term incubation” value (“effect on virus proliferation” below) with SARS-CoV-2 [3] is listed as “could inhibit virus proliferation in a concentration dependent manner”. In assay [4] (100 μM), this compound came in with an inhibition at 100 µM of 21 to 31%. Also, in assay [4], the “inhibitory effect on binding to ACE2 receptor” value (“inhibitory effect on binding” for short) was “could inhibit binding to ACE2 in a concentration dependent manner”. In addition, in the assay with SARS-CoV-2 [5] (80 μM), the “inhibition of viral replication” value is recorded as “inhibit viral replication completely”. Moreover, the “inhibition of viral replication” value in the assay with SARS-CoV-2 [5] (100 μM) was “inhibit viral replication completely”.

Regarding `Oc1cc(O)c2c(c1)O[C@H](c1cc(O)c(O)c(O)c1)[C@H](O)C2` [VII, (−)-epigallocatechin], in the assay with SARS-CoV-2 [1], the “Experiment 1: TCID50 assay with 2 doses/substance, 10 μM” value is given as 2.15 × 10^4 TCID50/mL; the “Experiment 2: repeat of TCID50 assay” value is given as 2.89 × 10^5 TCID50/mL; the “Experiment 2: Fold reduction of TCID50” value is 1.09 fold; the “Experiment 3: repeat of TCID50 assay” value was 3.80 × 10^5 TCID50/mL. In addition, in the assay on SARS-CoV-2 [1], the “Experiment 3: Fold reduction of TCID50” value is on record as 7.09 fold and the “Experiment 1: TCID50 assay with 2 doses/substance, 100 μM” value is recorded as 3.16 × 10^3 TCID50/mL.

`Oc1ccc(/C=C/c2cc(O)cc(O)c2)cc1` [trihydroxystilbene, trans-3,5,4′-trihydroxystilbene]: in the assay on SARS-CoV-2 [5] (100 μM), the “inhibition of viral replication” value is “low inhibition of viral replication”.

Take “(−) epigallocatechin gallate [Compound IV]”: in the assay on SARS-CoV-2 [1], the “Experiment 1: TCID50 assay with 2 doses/substance, 10 μM” value was 3.36 × 10^4 TCID50/mL; the “Experiment 2: repeat of TCID50 assay” value was 3.16 × 10^3 TCID50/mL; the “Experiment 2: Fold reduction of TCID50” value worked out at 99.7 fold; the “Experiment 3: repeat of TCID50 assay” value is 5.12 × 10^3 TCID50/mL. For the same compound, in the assay on SARS-CoV-2 [1], the “Experiment 3: Fold reduction of TCID50” value was 802 fold and 802.3 fold; the “Experiment 1: TCID50 assay with 2 doses/substance, 100 μM” value is reported as “cytotoxic”. Also, in the assay with SARS-CoV-2 [2], the “inhibition of virus proliferation” value is “inhibition of virus proliferation”. The “effect on virus proliferation” value in the assay with SARS-CoV-2 [3] is on record as “did not have any effects on the virus proliferation”. Also, the “inhibitory effect on binding” value in assay [4] is recorded as “did not show any inhibitory effects”.

Turning to (−)-gallocatechin gallate [VIII], in the assay with SARS-CoV-2 [1], the “Experiment 1: TCID50 assay with 2 doses/substance, 10 μM” value is listed as 2.15 × 10^5 TCID50/mL; the “Experiment 2: repeat of TCID50 assay” value was 3.16 × 10^3 TCID50/mL; the “Experiment 2: Fold reduction of TCID50” value is reported as 99.7 fold; the “Experiment 3: repeat of TCID50 assay” value was 8 × 10^5 TCID50/mL. Moreover, in the assay on SARS-CoV-2 [1], the “Experiment 3: Fold reduction of TCID50” value is 5.14 fold and the “Experiment 1: TCID50 assay with 2 doses/substance, 100 μM” value was 4.64 × 10^2 TCID50/mL. In the assay on SARS-CoV-2 [2], the “inhibition of virus proliferation” value was “inhibition of virus proliferation”. Further, the “effect on virus proliferation” value in the assay on SARS-CoV-2 [3] was “did not have any effects on the virus proliferation”. For the same compound, the “inhibitory effect on binding” value in assay [4] was “did not show any inhibitory effects”.
